Data on six compounds can be found in US20090299044A1 (priority 2006, published 2009).

For test [1], the target named is T1, human Kv1.3 (CHO) (Homo sapiens, UniProt P22001).
T1 construct: expressed in transfected cells; host or cells: CHO
Kind of test: cell-based.

Test [2] addresses T2, human Kv1.1 (HEK293) (Homo sapiens, UniProt Q09470).
T2 construct: expressed in transfected cells; host or cells: HEK293
The experiment in a line: cell-based.

pIC50: −log10 of the molar value. Bridge positions count the residues as written; N and C are the ends. Square brackets hold non-standard residues; d marks the D form. Peptide text beside a SMILES is read from it. 1Nal = N[C@@H](Cc1cccc2ccccc12)C(=O)O

T2 sequence (Q09470 whole entry): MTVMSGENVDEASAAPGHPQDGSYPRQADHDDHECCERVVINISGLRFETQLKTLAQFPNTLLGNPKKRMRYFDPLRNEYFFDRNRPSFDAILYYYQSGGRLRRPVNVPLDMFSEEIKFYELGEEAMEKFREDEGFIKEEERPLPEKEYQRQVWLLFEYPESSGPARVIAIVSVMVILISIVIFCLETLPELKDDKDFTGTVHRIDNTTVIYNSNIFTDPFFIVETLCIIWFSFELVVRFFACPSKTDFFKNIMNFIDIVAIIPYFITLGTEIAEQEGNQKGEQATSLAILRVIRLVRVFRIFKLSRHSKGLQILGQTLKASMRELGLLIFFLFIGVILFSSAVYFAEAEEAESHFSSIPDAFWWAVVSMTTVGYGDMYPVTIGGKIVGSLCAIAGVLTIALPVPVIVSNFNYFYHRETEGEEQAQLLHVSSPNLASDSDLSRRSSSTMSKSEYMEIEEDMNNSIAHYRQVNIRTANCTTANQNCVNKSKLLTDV
T1 sequence (P22001 whole entry): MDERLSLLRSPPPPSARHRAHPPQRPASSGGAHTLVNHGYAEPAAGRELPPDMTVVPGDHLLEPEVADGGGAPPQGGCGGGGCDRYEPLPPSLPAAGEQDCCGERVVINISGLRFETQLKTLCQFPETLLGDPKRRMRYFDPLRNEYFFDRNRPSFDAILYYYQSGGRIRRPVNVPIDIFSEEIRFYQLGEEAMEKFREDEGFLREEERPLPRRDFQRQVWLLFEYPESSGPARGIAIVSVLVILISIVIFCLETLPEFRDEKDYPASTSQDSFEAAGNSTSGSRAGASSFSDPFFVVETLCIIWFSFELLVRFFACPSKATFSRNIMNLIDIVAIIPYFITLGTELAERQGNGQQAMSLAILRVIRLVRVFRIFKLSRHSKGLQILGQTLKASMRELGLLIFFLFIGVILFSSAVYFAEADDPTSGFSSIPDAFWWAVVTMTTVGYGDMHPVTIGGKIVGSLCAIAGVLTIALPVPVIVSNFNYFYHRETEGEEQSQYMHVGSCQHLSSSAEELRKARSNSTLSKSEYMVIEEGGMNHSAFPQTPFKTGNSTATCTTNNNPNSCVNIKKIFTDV

Take `CC[C@H](C)[C@@H]1NC(=O)[C@H](CCCCN)NC(=O)[C@@H](NC(=O)[C@H](CCCCN)NC(=O)[C@@H](NC(=O)[C@H](CC(N)=O)NC(=O)[C@@H](NC(=O)[C@@H](NC(=O)[C@@H](NC(=O)CN)C(C)C)[C@@H](C)CC)[C@@H](C)CC)C(C)C)CSSC[C@@H]2NC(=O)[C@H](CCCCN)NC(=O)CNC(=O)[C@H](Cc3ccccc3)NC(=O)[C@H](CCCNC(=N)N)NC(=O)[C@H](CCSC)NC(=O)CNC(=O)[C@H](C)NC(=O)[C@H](CCCCN)NC(=O)[C@H](CCCCN)NC(=O)[C@@H]3CSSC[C@@H](C(=O)N[C@H](C(=O)N4CCC[C@H]4C(=O)N[C@@H](CCCNC(=N)N)C(=O)O)[C@@H](C)O)NC(=O)[C@H](Cc4c[nH]cn4)NC(=O)[C@H](CSSC[C@H](NC(=O)[C@H](CCC(N)=O)NC(=O)[C@H](CCCNC(=N)N)NC(=O)[C@H](CO)NC1=O)C(=O)N[C@@H](CC(C)C)C(=O)N[C@@H](CCC(=O)O)C(=O)N1CCC[C@H]1C(=O)N3)NC(=O)[C@H](CCCCN)NC(=O)CNC(=O)[C@H](CC(N)=O)NC(=O)[C@H](CCSC)NC2=O` [K38R] (H-GVIINVKCKISRQCLEPCKKAGMRFGKCMNGKCHCTPR-OH; disulfide 8-28, 14-33, 18-35): the pIC50 in test [1] is 10.82; in test [2], 11.74.

Regarding `CC[C@H](C)[C@@H]1NC(=O)[C@H](CCCCN)NC(=O)[C@@H](NC(=O)[C@H](CCCCN)NC(=O)[C@@H](NC(=O)[C@H](CC(N)=O)NC(=O)[C@@H](NC(=O)[C@@H](NC(=O)[C@@H](NC(=O)CN)C(C)C)[C@@H](C)CC)[C@@H](C)CC)C(C)C)CSSC[C@@H]2NC(=O)[C@H](CCCCN)NC(=O)CNC(=O)[C@H](Cc3ccccc3)NC(=O)[C@H](CCCNC(=N)N)NC(=O)[C@H](CCSC)NC(=O)CNC(=O)[C@H](C)NC(=O)[C@H](CCCCN)NC(=O)[C@H](CCCCN)NC(=O)[C@@H]3CSSC[C@@H](C(=O)N[C@H](C(=O)N4CCC[C@H]4C(=O)N[C@@H](CCCCN)C(=O)O)[C@@H](C)O)NC(=O)[C@H](Cc4c[nH]cn4)NC(=O)[C@H](CSSC[C@H](NC(=O)[C@H](CCC(N)=O)NC(=O)[C@H](CCCNC(=N)N)NC(=O)[C@H](CO)NC1=O)C(=O)N[C@@H](C)C(=O)N[C@@H](CCC(=O)O)C(=O)N1CCC[C@H]1C(=O)N3)NC(=O)[C@H](CCCCN)NC(=O)CNC(=O)[C@H](CC(N)=O)NC(=O)[C@H](CCSC)NC2=O` [L15A] (H-GVIINVKCKISRQCAEPCKKAGMRFGKCMNGKCHCTPK-OH; disulfide 8-28, 14-33, 18-35), the pIC50 in test [1] is 10.37; in test [2] it was 10.82.

On to `CC[C@H](C)[C@@H]1NC(=O)[C@H](CCCCN)NC(=O)[C@@H](NC(=O)[C@H](CCCCN)NC(=O)[C@@H](NC(=O)[C@H](CC(N)=O)NC(=O)[C@@H](NC(=O)[C@@H](NC(=O)[C@@H](NC(=O)CN)C(C)C)[C@@H](C)CC)[C@@H](C)CC)C(C)C)CSSC[C@@H]2NC(=O)[C@H](CCCCN)NC(=O)CNC(=O)[C@H](Cc3ccccc3)NC(=O)[C@H](CCCNC(=N)N)NC(=O)[C@H](CCSC)NC(=O)CNC(=O)[C@H](C)NC(=O)[C@H](CCCCN)NC(=O)[C@H](CCCCN)NC(=O)[C@@H]3CSSC[C@@H](C(=O)N[C@H](C(=O)N4CCC[C@H]4C(=O)N[C@@H](CCCCN)C(=O)O)[C@@H](C)O)NC(=O)[C@H](Cc4c[nH]cn4)NC(=O)[C@H](CSSC[C@H](NC(=O)[C@H](CCC(N)=O)NC(=O)[C@H](CCCNC(=N)N)NC(=O)[C@H](CO)NC1=O)C(=O)N[C@@H](Cc1cccc4ccccc14)C(=O)N[C@@H](CCC(=O)O)C(=O)N1CCC[C@H]1C(=O)N3)NC(=O)[C@H](CCCCN)NC(=O)CNC(=O)[C@H](CC(N)=O)NC(=O)[C@H](CCSC)NC2=O` [L15Nal] (H-GVIINVKCKISRQC[1Nal]EPCKKAGMRFGKCMNGKCHCTPK-OH; disulfide 8-28, 14-33, 18-35), for which the pIC50 in test [1] is 10.75; in test [2], above 11.82.

Consider `CC[C@H](C)[C@@H]1NC(=O)[C@H](CCCCN)NC(=O)[C@@H](NC(=O)[C@H](CCCCN)NC(=O)[C@@H](NC(=O)[C@H](CC(N)=O)NC(=O)[C@@H](NC(=O)[C@@H](NC(=O)[C@@H](NC(=O)CN)C(C)C)[C@@H](C)CC)[C@@H](C)CC)C(C)C)CSSC[C@@H]2NC(=O)[C@H](CCCCN)NC(=O)CNC(=O)[C@H](Cc3ccccc3)NC(=O)[C@H](CCCNC(=N)N)NC(=O)[C@H](CCSC)NC(=O)CNC(=O)[C@H](C)NC(=O)[C@H](CCCCN)NC(=O)[C@H](CCCCN)NC(=O)[C@@H]3CSSC[C@@H](C(=O)N[C@H](C(=O)N4CCC[C@H]4C(=O)N[C@@H](CCCCN)C(=O)O)[C@@H](C)O)NC(=O)[C@H](Cc4c[nH]cn4)NC(=O)[C@H](CSSC[C@H](NC(=O)[C@H](CCC(N)=O)NC(=O)[C@H](CCCNC(=N)N)NC(=O)[C@H](CO)NC1=O)C(=O)N[C@@H](CCCNC(=N)N)C(=O)N[C@@H](CCC(=O)O)C(=O)N1CCC[C@H]1C(=O)N3)NC(=O)[C@H](CCCCN)NC(=O)CNC(=O)[C@H](CC(N)=O)NC(=O)[C@H](CCSC)NC2=O` [L15R] (H-GVIINVKCKISRQCREPCKKAGMRFGKCMNGKCHCTPK-OH; disulfide 8-28, 14-33, 18-35), for which the pIC50 in test [1] was 10.86; in test [2], 11.67.

As for `CC[C@H](C)[C@@H]1NC(=O)[C@H](CCCCN)NC(=O)[C@@H](NC(=O)[C@H](CCCCN)NC(=O)[C@@H](NC(=O)[C@H](CC(N)=O)NC(=O)[C@@H](NC(=O)[C@@H](NC(=O)[C@@H](NC(=O)CN)C(C)C)[C@@H](C)CC)[C@@H](C)CC)C(C)C)CSSC[C@@H]2NC(=O)[C@H](CCCCN)NC(=O)CNC(=O)[C@H](Cc3ccccc3)NC(=O)[C@H](CCCNC(=N)N)NC(=O)[C@H](C)NC(=O)CNC(=O)[C@H](C)NC(=O)[C@H](CCCCN)NC(=O)[C@H](CCCCN)NC(=O)[C@@H]3CSSC[C@@H](C(=O)N[C@H](C(=O)N4CCC[C@H]4C(=O)N[C@@H](CCCCN)C(=O)O)[C@@H](C)O)NC(=O)[C@H](Cc4c[nH]cn4)NC(=O)[C@H](CSSC[C@H](NC(=O)[C@H](CCC(N)=O)NC(=O)[C@H](CCCNC(=N)N)NC(=O)[C@H](CO)NC1=O)C(=O)N[C@@H](CC(C)C)C(=O)N[C@@H](CCC(=O)O)C(=O)N1CCC[C@H]1C(=O)N3)NC(=O)[C@H](CCCCN)NC(=O)CNC(=O)[C@H](CC(N)=O)NC(=O)[C@H](CCSC)NC2=O` [M23A] (H-GVIINVKCKISRQCLEPCKKAGARFGKCMNGKCHCTPK-OH; disulfide 8-28, 14-33, 18-35), the negative logarithm of the IC50 (pIC50) in test [1] was 10.15; in test [2], 10.41.

On to `CC[C@H](C)[C@@H]1NC(=O)[C@H](CCCCN)NC(=O)[C@@H](NC(=O)[C@H](CCCCN)NC(=O)[C@@H](NC(=O)[C@H](CC(N)=O)NC(=O)[C@@H](NC(=O)[C@@H](NC(=O)[C@@H](NC(=O)CN)C(C)C)[C@@H](C)CC)[C@@H](C)CC)C(C)C)CSSC[C@@H]2NC(=O)[C@H](CCCCN)NC(=O)CNC(=O)[C@H](Cc3ccccc3)NC(=O)[C@H](CCCNC(=N)N)NC(=O)[C@H](CCC(=O)O)NC(=O)CNC(=O)[C@H](C)NC(=O)[C@H](CCCCN)NC(=O)[C@H](CCCCN)NC(=O)[C@@H]3CSSC[C@@H](C(=O)N[C@H](C(=O)N4CCC[C@H]4C(=O)N[C@@H](CCCCN)C(=O)O)[C@@H](C)O)NC(=O)[C@H](Cc4c[nH]cn4)NC(=O)[C@H](CSSC[C@H](NC(=O)[C@H](CCC(N)=O)NC(=O)[C@H](CCCNC(=N)N)NC(=O)[C@H](CO)NC1=O)C(=O)N[C@@H](CC(C)C)C(=O)N[C@@H](CCC(=O)O)C(=O)N1CCC[C@H]1C(=O)N3)NC(=O)[C@H](CCCCN)NC(=O)CNC(=O)[C@H](CC(N)=O)NC(=O)[C@H](CCSC)NC2=O` [M23E] (H-GVIINVKCKISRQCLEPCKKAGERFGKCMNGKCHCTPK-OH; disulfide 8-28, 14-33, 18-35), for which the pIC50 was 10.61 in test [1] and 10.98 in test [2].
